Our source for the GI50 values is patent publication US12215100B2, “Anticancer compounds” (Pharma Mar, S.A., priority 2018, dated 2025).

Structures are written as SMILES.

Assay type in all cases: cell-based, human
Assay [1] concerns A549. Description: SRB colorimetric cytotoxicity assay, A549. The settings on record: Homo sapiens, lung carcinoma (NSCLC). An excerpt:
(§1) The aim of this assay is to evaluate the in vitro cytostatic (ability to delay or arrest tumor cell growth) or cytotoxic (ability to kill tumor cells) activity of the samples being tested.
(§2) A colorimetric assay, using sulforhodamine B (SRB) reaction has been adapted to provide a quantitative measurement of cell growth and viability (following the technique described by V. Vichai and K. Kirtikara (2006) Nature Protoc. 1, 1112-1116.)
(§3) This form of assay employs 96-well cell culture microplates. All the cell lines used in this study were obtained from the American Type Culture Collection (ATCC), unless otherwise indicated, and derive from different types of human cancer.
(§4) Cells were maintained in Dulbecco's Modified Eagle Medium (DMEM) (for A549, HT-29 and MDA-MB-231) or RPMI (for PSN-1) supplemented with 10% Fetal Bovine Serum (FBS), 2 mM L-glutamine, 100 U/mL penicillin and 100 U/mL streptomycin at 37° C., 5% CO2 and 98% humidity. For the experiments, cells were harvested from subconfluent cultures using trypsinization and resuspended in fresh medium before counting and plating.
(§5) Cells were seeded in 96 well microtiter plates, at 5×10^3 cells per well in aliquots of 150 μL, and allowed to attach to the plate surface for 18 hours (overnight) in drug free medium. After that, one control (untreated) plate of each cell line was fixed (as described below) and used for time zero reference value. […] After 72 hours treatment, the antitumor effect was measured by using the SRB methodology: Briefly, cells were washed twice with PBS, fixed for 15 min in 1% glutaraldehyde solution at room temperature, rinsed twice in PBS, and stained in 0.4% SRB solution for 30 min at room temperature. Cells were then rinsed several times with 1% acetic acid solution and air-dried at room temperature. SRB was then extracted in 10 mM trizma base solution and the absorbance measured in an automated spectrophotometric plate reader at 490 nm. Effects on cell growth and survival were estimated by applying the NCI algorithm (Boyd M R and Pauli K D. Drug Dev Res. 1995, 34, 91-104).
(§6) Using the mean±SD of triplicates, a dose-response curve was automatically generated using nonlinear regression analysis to a 4-parameter logistic curve. Three reference parameters were calculated (NCI algorithm) by automatic interpolation: GI50=compound concentration that produces 50% cell growth inhibition, as compared to control cultures; TGI=total cell growth inhibition (cytostatic effect), as compared to control cultures, and LC50=compound concentration that produces 50% net cell killing (cytotoxic effect).

Assay [2] deals with HT29. Kind of assay: SRB colorimetric cytotoxicity assay, HT29. The following applies: Homo sapiens, colorectal adenocarcinoma.
From the text: as §1, §2, §3, §4, §5, §6

In assay [3] the test system is MDA-MB-231. Kind of assay: SRB colorimetric cytotoxicity assay, MDA-MB-231. The settings on record: Homo sapiens, breast adenocarcinoma.
From the text: as §1, §2, §3, §4, §5, §6

Assay [4] deals with PSN-1. Kind of assay: SRB colorimetric cytotoxicity assay, PSN-1. The settings on record: Homo sapiens, pancreatic adenocarcinoma.
From the text: as §1, §2, §3, §4, §5, §6

Where [5] appears, read: HT-29, 72 h, 72 hours treatment.
[6] abbreviates: MDA-MB-231, 72 h, 72 hours treatment.

Broadly, the GI50 is the concentration at which growth is held to half of that of the control. With `C=CCOc1cc([C@@H](CCC)NC(=O)[C@]2(C)CSC(/C(C)=N/OC(=O)[C@H]3O[C@@H]4OC(C)(C)O[C@@H]4[C@H]4OC(C)(C)O[C@H]43)=N2)oc(=O)c1` [Compound 170], the concentration for 50% growth inhibition (GI50) in assay [1] (A549, 72 h, 72 hours treatment) came to 3.01 nM; in assay [2] (setting [5]) it was 2.41 nM; in assay [3] (setting [6]) it was 5.57 nM; in assay [4] (PSN1, 72 h, 72 hours treatment), 2.71 nM.
The corresponding values for `CCC[C@@H](NC(=O)[C@]1(C)CSC(/C(C)=N/OCCCNC(=O)OC(C)(C)C)=N1)c1cc(OCC2CC2)cc(=O)o1` [Compound 157] are 5.37 nM, 5.02 nM, 5.37 nM and 5.54 nM.
The corresponding values for `C=C(C)C1=N[C@](C)(C(=O)N[C@H](CCC)c2cc(OCC3CC3)cc(=O)o2)CS1` [Compound 182] are 61.8 nM, 74.2 nM, 91.5 nM and 81.6 nM.
In the same order, the values of `C#CCOc1cc([C@@H](CCC)NC(=O)[C@]2(C)CSC(/C(C)=N/OCCCN)=N2)oc(=O)c1` (stereo in doubt) [Compound 156] are 1.28 nM, 2.43 nM, 2.6 nM and 2.43 nM.
`C=CCOc1cc([C@@H](CCC)NC(=O)[C@]2(C)CSC(/C(C)=N/O[C@H]3O[C@H](CO)[C@@H](O)[C@H](O)[C@@H]3O)=N2)oc(=O)c1` [Compound 112]: the GI50 was determined as 4040 nM in assay [1] (A549, 72 h, 72 hours treatment); 1110 nM in assay [2] (setting [5]); 2110 nM in assay [3] (setting [6]); 1230 nM in assay [4] (PSN1, 72 h, 72 hours treatment).
In the same order, the values of `CCC[C@H](NC(=O)[C@]1(C)CSC(/C(C)=N/O)=N1)c1cc(OC)cc(=O)o1` [Compound epi-1] are 2880 nM, 3410 nM, 3930 nM and 5770 nM.
As for `CCC[C@@H](NC(=O)[C@]1(C)CSC(/C(C)=N/N)=N1)c1cc(OC)cc(=O)o1` [Compound 99], the GI50 stood at 578 nM in assay [1] (A549, 72 h, 72 hours treatment); 447 nM in assay [2] (setting [5]); 657 nM in assay [3] (setting [6]); 920 nM in assay [4] (PSN1, 72 h, 72 hours treatment).
`CCC[C@@H](NC(=O)[C@]1(C)CSC(/C(C)=N/O[Si](c2ccccc2)(c2ccccc2)C(C)(C)C)=N1)c1cc(OCC2CC2)cc(=O)o1` [Compound 183]: the GI50 in assay [1] (A549, 72 hours treatment) is 5.76 nM; in assay [2] (HT-29, 72 hours treatment), 5.46 nM; in assay [3] (MDA-MB-231, 72 hours treatment), 5 nM; in assay [4] (PSN1, 72 hours treatment) it was 8.18 nM.
In the case of `C=CCOc1cc([C@@H](CCC)NC(=O)[C@]2(C)CSC(/C(C)=N/O)=N2)[nH]c(=O)c1` [Compound 190], the GI50 in assay [1] (A549, 72 h, 72 hours treatment) turned out to be 590 nM; in assay [2] (setting [5]) it was 244 nM; in assay [3] (setting [6]) it was 239 nM; in assay [4] (PSN1, 72 h, 72 hours treatment), 344 nM.
The corresponding values for `CCC[C@@H](NC(=O)[C@]1(C)CSC(/C(C)=N/O)=N1)c1cccc(=O)o1` [Compound 128] are 91.1 nM, 105 nM, 285 nM and 88.2 nM.
In the same order, the values of `CCC[C@@H](NC(=O)[C@]1(C)CSC(/C(C)=N\O)=N1)c1cc(OC)cc(=O)o1` [Compound 1a] are 144 nM, 152 nM, 204 nM and 341 nM.
Take `C=CCOc1cc([C@@H](CCC)NC(=O)[C@]2(C)CSC(/C(C)=N/OCCCCO)=N2)oc(=O)c1` [Compound 115]: the GI50 in assay [1] (A549, 72 h, 72 hours treatment) amounted to 11.1 nM; in assay [2] (setting [5]), 5.84 nM; in assay [3] (setting [6]), 11.9 nM; in assay [4] (PSN1, 72 h, 72 hours treatment) it was 13.6 nM.
The corresponding values for `COc1cc([C@@H](CC(C)C)NC(=O)[C@]2(C)CSC(/C(C)=N\O)=N2)oc(=O)c1` [Compound 69a] are 5060 nM, 3790 nM, 4550 nM and 6320 nM.
`C=CCOc1cc([C@@H](CCC)NC(=O)[C@]2(C)CSC(C(C)=O)=N2)oc(=O)c1` [Compound 63]: the GI50 amounted to 815 nM in assay [1] (A549, 72 h, 72 hours treatment); 510 nM in assay [2] (setting [5]); 484 nM in assay [3] (setting [6]); 408 nM in assay [4] (PSN1, 72 h, 72 hours treatment).
For `C=CCOc1cc([C@@H](CCC)NC(=O)[C@]2(C)CSC(/C(C)=N/O[C@H]3O[C@H](CO)[C@@H](O)[C@@H]4OC(C)(C)O[C@H]34)=N2)oc(=O)c1` [Compound 111], the concentration for 50% growth inhibition (GI50) came to 26.2 nM in assay [1] (A549, 72 h, 72 hours treatment); 24.6 nM in assay [2] (setting [5]); 29.5 nM in assay [3] (setting [6]); 37.7 nM in assay [4] (PSN1, 72 h, 72 hours treatment).
The corresponding values for `CCC[C@@H](NC(=O)[C@]1(C)CSC(/C(C)=N/O[C@H]2O[C@@H]3COC(C)(C)O[C@H]3[C@@H]3OC(C)(C)O[C@H]23)=N1)c1cc(OCC2CC2)cc(=O)o1` [Compound 179] are 9.04 nM, 6.48 nM, 13.7 nM and 14.3 nM.
Turning to `CCC[C@@H](NC(=O)[C@]1(C)CSC(/C(C)=N/OCCCCOP(=O)(OC(C)(C)C)OC(C)(C)C)=N1)c1cc(OCC2CC2)cc(=O)o1` [Compound 191], the concentration for 50% growth inhibition (GI50) was 496 nM in assay [1] (A549, 72 h, 72 hours treatment); 554 nM in assay [2] (setting [5]); 612 nM in assay [3] (setting [6]); 875 nM in assay [4] (PSN1, 72 h, 72 hours treatment).
The corresponding values for `CCC[C@@H](NC(=O)[C@@H]1CSC(/C(C)=N/O)=N1)c1cc(OC)cc(=O)o1` [Compound 92] are 1550 nM, 1280 nM, 953 nM and 953 nM.
The corresponding values for `CCCCCCCCCCCCCCCCCOc1cc([C@@H](CCC)NC(=O)[C@]2(C)CSC(/C(C)=N\O)=N2)oc(=O)c1` [Compound 73a] are 64.4 nM, 62.7 nM, 66 nM and 59.4 nM.
The corresponding values for `CCC[C@@H](NC(=O)[C@]1(C)CSC(/C(C)=N/OCCOCCOCCOCC)=N1)c1cc(OCC2CC2)cc(=O)o1` [Compound 145] are 48.1 nM, 61.9 nM, 122 nM and 112 nM.
As for `CCC[C@@H](NC(=O)[C@]1(C)CSC(/C(C)=N/OC(=O)CCCCCNC(=O)OC(C)(C)C)=N1)c1cc(OCC2CC2)cc(=O)o1` [Compound 166], the 50% growth inhibitory concentration (GI50) turned out to be 4.73 nM in assay [1] (A549, 72 h, 72 hours treatment); 4.57 nM in assay [2] (setting [5]); 7.09 nM in assay [3] (setting [6]); 6.3 nM in assay [4] (PSN1, 72 h, 72 hours treatment).
The corresponding values for `CCCCCCCOc1cc([C@@H](CCC)NC(=O)[C@]2(C)CSC(C(C)=O)=N2)oc(=O)c1` [Compound 61] are 1840 nM, 1400 nM, 1440 nM and 1730 nM.
In the same order, the values of `C=CCOc1cc([C@@H](CCC)NC(=O)[C@@]2(C)CSC(C(C)(OCC)OCC)=N2)oc(=O)c1` [Compound 130] are 214 nM, 206 nM, 364 nM and 364 nM.
In the same order, the values of `CCC[C@@H](NC(=O)[C@@H]1CSC(C(C)=O)=N1)c1cc(OCC2CC2)cc(=O)o1` [Compound 177] are 2270 nM, 1550 nM, 1610 nM and > 25500 nM.
`CCC[C@@H](NC(=O)[C@@]1(C)CSC(/C(C)=N/O)=N1)c1cc(OCC2CC2)cc(=O)o1` [Compound 137]: the 50% growth inhibitory concentration (GI50) in assay [1] (A549, 72 h, 72 hours treatment) was determined as 126 nM; in assay [2] (setting [5]), 109 nM; in assay [3] (setting [6]) it was 149 nM; in assay [4] (PSN1, 72 h, 72 hours treatment), 145 nM.
